From paper PMC11855478, “Bicyclic N,S-Acetals Containing Fused Cysteine-Amide System as New Heterocyclic Class Targeting Human Farnesyltransferase (FTase-h)” (International Journal of Molecular Sciences, 2025)

Legend:
[1] = system: OVCAR-8 (Ovarian Cancer); assay: NCI one dose, OVCAR-8; type: cell-based, human; conditions: OVCAR-8, 1.00E-5 Molar one dose
Description: (§1) 3.4. Cell Proliferation Assay
(§2) Selected compounds were tested on a panel of 60 human cancer cell lines at the National Cancer Institute (NCI), Germantown, MD, USA. The cytotoxicity studies were conducted using a 48 h exposure protocol using the sulfo-rhodamine B assay.

[2] = system: KM12 (Colon Cancer); assay: NCI one dose, KM12; type: cell-based, human; conditions: KM12, 1.00E-5 Molar one dose
Description: as §1, §2

[3] = system: MALME-3M (Melanoma); assay: NCI one dose, MALME-3M; type: cell-based, human; conditions: 1.00E-5 Molar one dose
Description: as §1, §2

[4] = system: SK-MEL-5 (Melanoma); assay: NCI one dose, SK-MEL-5; type: cell-based, human; conditions: SK-MEL-5, 1.00E-5 Molar one dose
Description: as §1, §2

[5] = system: SF-539 (CNS Cancer); assay: NCI one dose, SF-539; type: cell-based, human; conditions: SF-539, 1.00E-5 Molar one dose
Description: as §1, §2

[6] = system: panel of 60 human cancer cell lines; assay: NCI 60 cell panel one dose screen (whole panel); type: cell-based; design: Delta (One Dose Mean Graph): unit not given here; conditions: 1.00E-5 Molar one dose; for Range (One Dose Mean Graph): in % (unit assumed); for Mean Growth Percent: mean over tested cell lines
Description: as §1
Selected compounds were tested on a panel of 60 human cancer cell lines at the National Cancer Institute (NCI), Germantown, MD, USA. The cytotoxicity studies were conducted using a 48 h exposure protocol using the sulfo-rhodamine B assay. […]
X. NCI One Dose Mean Graph of sulfides 4a(A -J) and 4b(A-J)
The entire series of sulfides regrouping twenty synthesized FTI-candidates (4aA-J, 4bA-J) were selected by the National Cancer Institute (NCI) for evaluation of their antiproliferative activity against 60 cancer cell lines (see the followings twenty pages for full evaluation reports). […]
inhibiting 36% of the NCI-H522 cells. Such difference between IC50 on human FTase in the nanomolar range and IC50 on cancer cell growth in the micromolar range is characteristic to potent FTIs and was reported previously on different series of compounds (see for example ref erence in the references part […]
Of interest, none of the tested compounds at a high single dose (10 µM) in the full NCI 60 cell panel has shown a cytotoxic profile. […]
inhibitory potential on FTase raise good hope for further investigation of these series as agents fighting

[7] = system: HCC-2998 (Colon Cancer); assay: NCI one dose, HCC-2998; type: cell-based, human; conditions: HCC-2998, 1.00E-5 Molar one dose
Description: as §1, §2

[8] = system: MDA-MB-231/ATCC (Breast Cancer); assay: NCI one dose, MDA-MB-231/ATCC; type: cell-based, human; conditions: 1.00E-5 Molar one dose
Description: as §1, §2

[9] = system: CAKI-1 (Renal Cancer); assay: NCI one dose, CAKI-1; type: cell-based, human; conditions: CAKI-1, 1.00E-5 Molar one dose
Description: as §1, §2

[10] = system: OVCAR-4 (Ovarian Cancer); assay: NCI one dose, OVCAR-4; type: cell-based, human; conditions: OVCAR-4, 1.00E-5 Molar one dose
Description: as §1, §2

[11] = system: PC-3 (Prostate Cancer); assay: NCI one dose, PC-3; type: cell-based, human; conditions: PC-3, 1.00E-5 Molar one dose
Description: as §1, §2

[12] = system: 786-0 (Renal Cancer); assay: NCI one dose, 786-0; type: cell-based, human; conditions: 786-0, 1.00E-5 Molar one dose
Description: as §1, §2

[13] = system: A498 (Renal Cancer); assay: NCI one dose, A498; type: cell-based, human; conditions: A498, 1.00E-5 Molar one dose
Description: as §1, §2

[14] = system: RPMI-8226 (Leukemia); assay: NCI one dose, RPMI-8226; type: cell-based, human; conditions: RPMI-8226, 1.00E-5 Molar one dose
Description: as §1, §2

[15] = system: RXF 393 (Renal Cancer); assay: NCI one dose, RXF 393; type: cell-based, human; conditions: RXF 393, 1.00E-5 Molar one dose
Description: as §1, §2

[16] = system: SF-268 (CNS Cancer); assay: NCI one dose, SF-268; type: cell-based, human; conditions: SF-268, 1.00E-5 Molar one dose
Description: as §1, §2

[17] = system: IGROV1 (Ovarian Cancer); assay: NCI one dose, IGROV1; type: cell-based, human; conditions: IGROV1, 1.00E-5 Molar one dose
Description: as §1, §2

[18] = system: NCI-H23 (Non-Small Cell Lung Cancer); assay: NCI one dose, NCI-H23; type: cell-based, human; conditions: NCI-H23, 1.00E-5 Molar one dose
Description: as §1, §2

[19] = system: TK-10 (Renal Cancer); assay: NCI one dose, TK-10; type: cell-based, human; conditions: TK-10, 1.00E-5 Molar one dose
Description: as §1, §2

[20] = system: UO-31 renal cancer cells; assay: NCI one dose, UO-31; type: cell-based, human; conditions: UO-31, 1.00E-5 Molar one dose
Description: as §1, §2

[21] = system: A549/ATCC (Non-Small Cell Lung Cancer); assay: NCI one dose, A549/ATCC; type: cell-based, human; conditions: 1.00E-5 Molar one dose
Description: as §1, §2

[22] = system: MOLT-4 (Leukemia); assay: NCI one dose, MOLT-4; type: cell-based, human; conditions: MOLT-4, 1.00E-5 Molar one dose
Description: as §1, §2

[23] = system: U251 (CNS Cancer); assay: NCI one dose, U251; type: cell-based, human; conditions: U251, 1.00E-5 Molar one dose
Description: as §1, §2

[24] = system: SR (Leukemia); assay: NCI one dose, SR; type: cell-based, human; conditions: 1.00E-5 Molar one dose
Description: as §1, §2

[25] = system: NCI-H460 (Non-Small Cell Lung Cancer); assay: NCI one dose, NCI-H460; type: cell-based, human; conditions: NCI-H460, 1.00E-5 Molar one dose
Description: as §1, §2

[26] = system: T-47D (Breast Cancer); assay: NCI one dose, T-47D; type: cell-based, human; conditions: 1.00E-5 Molar one dose
Description: as §1, §2

| SMILES | Growth Percent [1] | Growth Percent [2] | Growth Percent [3] | Growth Percent [4] | Growth Percent [5] | Delta (One Dose Mean Graph) [6] | Range (One Dose Mean Graph) [6] | Mean Growth Percent [6] | Growth Percent [7] | Growth Percent [8] | Growth Percent [9] | Growth Percent [10] | Growth Percent [11] | Growth Percent [12] | Growth Percent [13] | Growth Percent [14] | Growth Percent [15] | Growth Percent [16] | Growth Percent [17] | Growth Percent [18] | other results |
| --- | --- | --- | --- | --- | --- | --- | --- | --- | --- | --- | --- | --- | --- | --- | --- | --- | --- | --- | --- | --- | --- |
| O=C(NCc1ccccc1)[C@@H]1CS[C@H]2c3ccccc3C(=O)N12 [4aA] | 101.18% | 110.51% | 111.55% | 114.63% | 102.43% | 20.43 | 35.31 | 99.75% | 101.83% | 100.79% | 94.90% | 111.39% | 96.96% | 85.46% | 102.15% | 105.32% | 114.31% | 90.56% | 105.80% | 100.85% | Growth Percent [19]: 96.56%; Growth Percent [20]: 91.66%; Growth Percent [21]: 97.86%; Growth Percent [22]: 95.69%; Growth Percent [23]: 97.80% |
| O=C(NCc1ccccc1C(F)(F)F)[C@@H]1CS[C@H]2c3ccccc3C(=O)N12 [4aC] | 94.34% | 102.90% | 108.73% | 107.31% | 95.88% | 21.44 | 40.62 | 96.28% | 111.38% | 91.35% | 97.48% | 105.74% | 85.22% | 86.33% | 98.14% | 87.69% | 115.46% | 93.86% | 98.93% | 105.15% | Growth Percent [19]: 108.86%; Growth Percent [20]: 74.84%; Growth Percent [21]: 90.42%; Growth Percent [22]: 85.46%; Growth Percent [23]: 91.06% |
| O=C(NCc1cccc(C(F)(F)F)c1)[C@@H]1CS[C@H]2c3ccccc3C(=O)N12 [4aD] | 94.59% | 98.82% | 106.15% | 110.95% | 101.49% | 22.37 | 46.64 | 97.10% | 121.37% | 97.44% | 97.61% | 105.79% | 86.39% | 88.74% | 103.16% | 94.54% | 114.41% | 96.16% | 95.38% | 100.33% | Growth Percent [19]: 117.52%; Growth Percent [20]: 78.58%; Growth Percent [21]: 94.49%; Growth Percent [22]: 86.93%; Growth Percent [23]: 94.74% |
| COc1cccc(CNC(=O)[C@@H]2CS[C@H]3c4ccccc4C(=O)N23)c1 [4aE] | 100.28% | 100.40% | 107.90% | 106.50% | 110.14% | 27.47 | 39.82 | 101.56% | 98.50% | 107.16% | 96.42% | 112.11% | 98.06% | 102.72% | 92.71% | 101.67% | 101.84% | 100.53% | 109.07% | 99.84% | Growth Percent [24]: 84.95%; Growth Percent [25]: 113.41%; Growth Percent [19]: 89.04%; Growth Percent [20]: 97.14%; Growth Percent [26]: 103.32%; Growth Percent [21]: 83.51%; Growth Percent [22]: 80.83%; Growth Percent [23]: 102.42% |
| COc1ccc(CNC(=O)[C@@H]2CS[C@H]3c4ccccc4C(=O)N23)cc1 [4aF] | 99.52% | 100.55% | 100.21% | 110.95% | 107.51% | 26.11 | 46.82 | 101.29% | 114.93% | 107.73% | 97.50% | 110.64% | 90.27% | 97.97% | 105.77% | 101.90% | 117.51% | 101.17% | 93.78% | 108.19% | Growth Percent [19]: 105.25%; Growth Percent [20]: 75.18%; Growth Percent [21]: 95.62%; Growth Percent [22]: 97.28%; Growth Percent [23]: 98.53% |
| O=C(NCc1ccc(Cl)cc1Cl)[C@@H]1CS[C@H]2c3ccccc3C(=O)N12 [4aH] | 97.57% | 99.99% | 107.73% | 109.91% | 106.56% | 24.18 | 40.81 | 97.15% | 102.84% | 110.76% | 101.46% | 106.54% | 81.35% | 89.83% | 101.60% | 80.68% | 105.25% | 98.11% | 101.47% | 99.59% | Growth Percent [19]: 103.48%; Growth Percent [20]: 83.58%; Growth Percent [21]: 97.39%; Growth Percent [22]: 79.54%; Growth Percent [23]: 95.21% |
| COc1cc(CNC(=O)[C@@H]2CS[C@H]3c4ccccc4C(=O)N23)cc(OC)c1OC [4aJ] | 103.46% | 103.41% | 105.79% | 107.99% | 89.92% | 15.66 | 30.62 | 98.66% | 113.62% | 84.71% | 95.05% | 104.76% | 87.87% | 90.66% | 100.74% | 95.00% | 110.79% | 104.63% | 102.86% | 100.31% | Growth Percent [19]: 103.10%; Growth Percent [20]: 84.08%; Growth Percent [21]: 98.15%; Growth Percent [22]: 90.32%; Growth Percent [23]: 104.21% |
